Source: ChEMBL document CHEMBL1124506, “Synthesis and antimicrobial properties of substituted beta-aminoxypropionyl penicillins and cephalosporins” (1989)
≈ marks a conversion by molar mass, not a printed value.

How the values were obtained:
Type in all cases: functional
[1] = Inhibition of gram negative (resistant) growth.
[2] = Inhibition of gram positive bacteria growth.
[3] = Inhibition of gram negative bacteria growth.
Staphylococcus aureus = assay: Inhibition of gram positive (resistant) bacteria growth.

**Q.** For `CC1(C)SC2C(NC(=O)CCON=C3CCCC3)C(=O)N2[C@H]1C(=O)[O-].[K+]` (some centres undefined), which MIC [1] is on record?
**A.** > 200 µg/mL

**Q.** What about the MIC [2] of the same compound?
**A.** 0.06 µg/mL

**Q.** And the MIC [3]?
**A.** 53 µg/mL

**Q.** And the MIC (Staphylococcus aureus)?
**A.** 25 µg/mL

**Q.** For `CC(=O)OCC1=C(C(=O)[O-])N2C(=O)C(NC(=O)CCO/N=C(\C)c3ccc(Cl)cc3)C2SC1.[K+]` (centres undefined), which MIC [1] is on record?
**A.** > 200 µg/mL

**Q.** What about the MIC [2] of the same compound?
**A.** 0.25 µg/mL

**Q.** And the MIC [3]?
**A.** 151 µg/mL

**Q.** What about the MIC (Staphylococcus aureus) of the same compound?
**A.** 4 µg/mL

**Q.** Which MIC [1] does the source give for `CCCC(CCC)=NOCCC(=O)NC1C(=O)N2C(C(=O)O)=C(C)CSC12` (centres undefined) here?
**A.** > 200 µg/mL

**Q.** And the MIC [2]?
**A.** 16.4 µg/mL (≈ 41.3 µM)

**Q.** What about the MIC [3] of the same compound?
**A.** > 200 µg/mL

**Q.** What about the MIC (Staphylococcus aureus) of the same compound?
**A.** 100 µg/mL (≈ 252 µM)

**Q.** With `CC1(C)SC2C(NC(=O)CCON=C3CCCCC3)C(=O)N2[C@H]1C(=O)[O-].[K+]` (some centres undefined) as the compound, how does the MIC [1] read?
**A.** > 200 µg/mL

**Q.** And the MIC [2]?
**A.** 0.2 µg/mL

**Q.** And the MIC [3]?
**A.** 107 µg/mL

**Q.** What about the MIC (Staphylococcus aureus) of the same compound?
**A.** 25 µg/mL

**Q.** What does the source list for `CC(=O)OCC1=C(C(=O)O)N2C(=O)C(NC(=O)CCON=C3c4ccccc4-c4ccccc43)C2SC1` (centres undefined)?
**A.** MIC [1]: > 100 µg/mL; MIC [2]: 0.02 µg/mL (≈ 0.0383 µM); MIC [3]: 44 µg/mL (≈ 84.4 µM); MIC (Staphylococcus aureus): 0.25 µg/mL (≈ 0.479 µM)

**Q.** With `CC(=O)OCC1=C(C(=O)O)N2C(=O)C(NC(=O)CCON=C(C)C)C2SC1` (centres undefined) as the compound, how does the MIC [1] read?
**A.** > 200 µg/mL

**Q.** And the MIC [2]?
**A.** 1.7 µg/mL (≈ 4.26 µM)

**Q.** What about the MIC [3] of the same compound?
**A.** 174 µg/mL (≈ 436 µM)

**Q.** What about the MIC (Staphylococcus aureus) of the same compound?
**A.** 6.2 µg/mL (≈ 15.5 µM)

**Q.** With `CC(=O)OCC1=C(C(=O)O)N2C(=O)C(NC(=O)Cc3ccccc3)C2SC1` (centres undefined) as the compound, how does the MIC [1] read?
**A.** > 200 µg/mL

**Q.** What about the MIC [2] of the same compound?
**A.** 1.06 µg/mL (≈ 2.72 µM)

**Q.** What about the MIC [3] of the same compound?
**A.** 29 µg/mL (≈ 74.3 µM)

**Q.** What about the MIC (Staphylococcus aureus) of the same compound?
**A.** 12.6 µg/mL (≈ 32.3 µM)

**Q.** Which MIC [1] does the source give for `CC(=O)OCC1=C(C(=O)O)N2C(=O)C(NC(=O)CCON=C3CCCCC3)C2SC1` (centres undefined) here?
**A.** > 200 µg/mL

**Q.** What about the MIC [2] of the same compound?
**A.** 0.5 µg/mL (≈ 1.14 µM)

**Q.** What about the MIC [3] of the same compound?
**A.** 174 µg/mL (≈ 396 µM)

**Q.** What about the MIC (Staphylococcus aureus) of the same compound?
**A.** 1.9 µg/mL (≈ 4.32 µM)

**Q.** Which MIC [1] does the source give for `CC(=O)OCC1=C(C(=O)O)N2C(=O)C(NC(=O)CCO/N=C\c3ccccc3)C2SC1` (centres undefined) here?
**A.** > 200 µg/mL

**Q.** What about the MIC [2] of the same compound?
**A.** 0.22 µg/mL (≈ 0.492 µM)

**Q.** And the MIC [3]?
**A.** 71 µg/mL (≈ 159 µM)

**Q.** What about the MIC (Staphylococcus aureus) of the same compound?
**A.** 4 µg/mL (≈ 8.94 µM)

**Q.** Which MIC [1] does the source give for `CC1=C(C(=O)O)N2C(=O)C(NC(=O)Cc3ccccc3)C2SC1` (centres undefined) here?
**A.** > 200 µg/mL

**Q.** And the MIC [2]?
**A.** 6.2 µg/mL (≈ 18.7 µM)

**Q.** And the MIC [3]?
**A.** 123 µg/mL (≈ 370 µM)

**Q.** And the MIC (Staphylococcus aureus)?
**A.** 200 µg/mL (≈ 602 µM)

**Q.** For `CC1=C(C(=O)O)N2C(=O)C(NC(=O)CCO/N=C(\C)c3ccc(Cl)cc3)C2SC1` (centres undefined), which MIC [1] is on record?
**A.** > 200 µg/mL

**Q.** And the MIC [2]?
**A.** 4.7 µg/mL (≈ 10.7 µM)

**Q.** And the MIC [3]?
**A.** > 200 µg/mL

**Q.** And the MIC (Staphylococcus aureus)?
**A.** 63 µg/mL (≈ 144 µM)

**Q.** Which results are given for `CC1(C)SC2C(NC(=O)CCO/N=C/c3ccccc3)C(=O)N2[C@H]1C(=O)[O-].[K+]` (some centres undefined)?
**A.** MIC [1]: > 200 µg/mL; MIC [2]: 0.1 µg/mL; MIC [3]: 136 µg/mL; MIC (Staphylococcus aureus): 50 µg/mL

**Q.** With `CC1=C(C(=O)O)N2C(=O)C(NC(=O)CCON=C3CCCCC3)C2SC1` (centres undefined) as the compound, how does the MIC [1] read?
**A.** > 200 µg/mL

**Q.** And the MIC [2]?
**A.** 7.3 µg/mL (≈ 19.1 µM)

**Q.** And the MIC [3]?
**A.** 131 µg/mL (≈ 343 µM)

**Q.** And the MIC (Staphylococcus aureus)?
**A.** 79 µg/mL (≈ 207 µM)

**Q.** Which results are given for `CC1=C(C(=O)O)N2C(=O)C(NC(=O)CCO/N=C\c3ccccc3)C2SC1` (centres undefined)?
**A.** MIC [1]: > 200 µg/mL; MIC [2]: 8.2 µg/mL (≈ 21.1 µM); MIC [3]: > 200 µg/mL; MIC (Staphylococcus aureus): 79 µg/mL (≈ 203 µM)

**Q.** Which results are given for `CC1=C(C(=O)O)N2C(=O)C(NC(=O)CCON=C3CCCC3)C2SC1` (centres undefined)?
**A.** MIC [1]: > 200 µg/mL; MIC [2]: 9.1 µg/mL (≈ 24.8 µM); MIC [3]: 131 µg/mL (≈ 357 µM); MIC (Staphylococcus aureus): 79 µg/mL (≈ 215 µM)

**Q.** With `CCCC(CCC)=NOCCC(=O)NC1C(=O)N2C(C(=O)O)=C(COC(C)=O)CSC12` (centres undefined) as the compound, how does the MIC [1] read?
**A.** > 200 µg/mL

**Q.** What about the MIC [2] of the same compound?
**A.** 0.73 µg/mL (≈ 1.6 µM)

**Q.** And the MIC [3]?
**A.** 93 µg/mL (≈ 204 µM)

**Q.** And the MIC (Staphylococcus aureus)?
**A.** 10 µg/mL (≈ 22 µM)

**Q.** Which MIC [1] does the source give for `CC1(C)SC2C(NC(=O)CCON=C3c4ccccc4-c4ccccc43)C(=O)N2[C@H]1C(=O)[O-].[K+]` (some centres undefined) here?
**A.** > 200 µg/mL

**Q.** And the MIC [2]?
**A.** 0.06 µg/mL

**Q.** What about the MIC [3] of the same compound?
**A.** 131 µg/mL

**Q.** What about the MIC (Staphylococcus aureus) of the same compound?
**A.** 8 µg/mL

**Q.** What does the source list for `CC1(C)S[C@@H]2[C@H](NC(=O)[C@H](N)c3ccccc3)C(=O)N2[C@H]1C(=O)O` [AMPICILLIN]?
**A.** MIC [1]: > 200 µg/mL; MIC [2]: 0.04 µg/mL (≈ 0.114 µM); MIC [3]: 1 µg/mL (≈ 2.86 µM); MIC (Staphylococcus aureus): 10 µg/mL (≈ 28.6 µM)

**Q.** Which results are given for `CC1=C(C(=O)O)N2C(=O)[C@@H](NC(=O)[C@H](N)c3ccccc3)[C@H]2SC1` [CEPHALEXIN ANHYDROUS]?
**A.** MIC [1]: > 100 µg/mL; MIC [2]: 0.4 µg/mL (≈ 1.15 µM); MIC [3]: 2 µg/mL (≈ 5.76 µM); MIC (Staphylococcus aureus): 20 µg/mL (≈ 57.6 µM)

**Q.** Which MIC [1] does the source give for `CC1(C)S[C@@H]2[C@H](NC(=O)Cc3ccccc3)C(=O)N2[C@H]1C(=O)O` [PENICILLIN G] here?
**A.** > 200 µg/mL

**Q.** What about the MIC [2] of the same compound?
**A.** 0.05 µg/mL (≈ 0.15 µM)

**Q.** What about the MIC [3] of the same compound?
**A.** 71 µg/mL (≈ 212 µM)

**Q.** And the MIC (Staphylococcus aureus)?
**A.** 79 µg/mL (≈ 236 µM)

**Q.** With `[3H]C([3H])([3H])N1C(=O)CN=C(c2ccc(Cl)cc2)c2cc(Cl)ccc21` [[3H]-RO-54864] as the compound, how does the MIC [1] read?
**A.** > 200 µg/mL

**Q.** And the MIC [2]?
**A.** 0.59 µg/mL (≈ 1.81 µM)

**Q.** What about the MIC [3] of the same compound?
**A.** 71 µg/mL (≈ 218 µM)

**Q.** And the MIC (Staphylococcus aureus)?
**A.** 7.3 µg/mL (≈ 22.4 µM)
